In patent US8952024B2, “Herbicidal pyrimidone derivatives” (E I du Pont de Nemours and Company, priority 2009, dated 2015):

Columns and labels:
Experiment in all cases: Test B pre-/postemergence plant response
Format in all cases: in vivo
[1] = test system: Surinam grass (Brachiaria decumbens)
In short: (§1)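 Visually scored on a 0 to 100 scale after 13 to 15 days in greenhouse versus controls. Treatments were preemergence on seeded loam/sand soil and postemergence on 1- to 4-leaf plants.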

[2] = test system: blackgrass (Alopecurus myosuroides)
In short: as §1

[3] = test system: corn (Zea mays)
In short: as §1

[4] = test system: downy bromegrass (Bromus tectorum)
In short: as §1

[5] = test system: goosegrass (Eleusine indica)
In short: as §1

[6] = test system: green foxtail (Setaria viridis)
In short: as §1

[7] = test system: johnsongrass (Sorghum halepense)
In short: as §1

[8] = test system: kochia (Kochia scoparia); conditions: Postemergence; for Plant response rating, Kochia: scale 0 (no effect) to 100 (complete control)
In short: as §1

[9] = test system: lambsquarters (Chenopodium album)
In short: as §1

[10] = test system: large crabgrass (Digitaria sanguinalis)
In short: as §1

[11] = test system: morningglory (Ipomoea coccinea)
In short: as §1

[12] = test system: pigweed (Amaranthus retroflexus)
In short: as §1

[13] = test system: soybean (Glycine max)
In short: as §1

[14] = test system: velvetleaf (Abutilon theophrasti)
In short: as §1

[15] = test system: wild oat (Avena fatua)
In short: as §1

[16] = test system: woolly cupgrass (Eriochloa villosa)
In short: as §1

[17] = test system: yellow nutsedge (Cyperus esculentus)
In short: as §1

[18] = 250 g ai/ha, Preemergence, 0 to 100 scale
[19] = Postemergence, 62 g ai/ha, scale 0 (no effect) to 100 (complete control), 13 to 15 days
[20] = Postemergence, 125 g ai/ha, visual rating after 13 to 15 days, scale 0 (no effect) to 100 (complete control)
[21] = Preemergence, 31 g ai/ha, scale 0 to 100 (0 no effect, 100 complete control)
[22] = Preemergence, 125 g ai/ha, 0 to 100 scale
[23] = Postemergence, 31 g ai/ha, scale 0 to 100 (0 no effect, 100 complete control)
[24] = Postemergence, 250 g ai/ha, scale 0 to 100
[25] = Preemergence, 62 g ai/ha, scale 0 to 100, 0 no effect, 100 complete control

## Cc1cccc(-n2c(-c3cccc(Cl)c3)ncc(C(=O)C3=C(O)CCCC3=O)c2=O)c1 [Compound 45]
[1]; [18]
  Plant response rating, Surinam Grass: 98
[1]; [19]
  Plant response rating, Surinam Grass: 75
[1]; [20]
  Plant response rating, Surinam Grass: 95
[1]; [21]
  Plant response rating, Surinam Grass: 45
[1]; [22]
  Surinam Grass plant response rating: 98
[2]; [18]
  Plant response rating, Blackgrass: 5
[2]; [23]
  Plant response rating, Blackgrass: 5
[2]; [19]
  Plant response rating, Blackgrass: 5
[2]; [20]
  Plant response rating, Blackgrass: 10
[2]; [24]
  Blackgrass plant response rating: 25
[2]; [21]
  Plant response rating, Blackgrass: 0
[2]; [25]
  Plant response rating, Blackgrass: 0
[2]; [22]
  Blackgrass plant response rating: 0
[3]; [18]
  Plant response rating, Corn: 0
[3]; [23]
  Plant response rating, Corn: 10
[3]; [19]
  Plant response rating, Corn: 45
[3]; [20]
  Plant response rating, Corn: 60
[3]; [24]
  Corn plant response rating: 80
[3]; [21]
  Plant response rating, Corn: 0
[3]; [25]
  Plant response rating, Corn: 0
[3]; [22]
  Corn plant response rating: 0
[4]; [18]
  Plant response rating, Bromegrass, Downy: 5
[4]; [23]
  Plant response rating, Bromegrass, Downy: 10
[4]; [19]
  Plant response rating, Bromegrass, Downy: 20
[4]; [20]
  Plant response rating, Bromegrass, Downy: 45
[4]; [24]
  Bromegrass, Downy plant response rating: 50
[4]; [21]
  Plant response rating, Bromegrass, Downy: 0
[4]; [25]
  Plant response rating, Bromegrass, Downy: 0
[4]; [22]
  Bromegrass, Downy plant response rating: 0
[5]; [18]
  Plant response rating, Goosegrass: 100
[5]; [19]
  Plant response rating, Goosegrass: 75
[5]; [20]
  Plant response rating, Goosegrass: 80
[5]; [24]
  Goosegrass plant response rating: 90
[5]; [21]
  Plant response rating, Goosegrass: 80
[5]; [22]
  Goosegrass plant response rating: 100
[6]; [18]
  Plant response rating, Foxtail, Green: 100
[6]; [23]
  Plant response rating, Foxtail, Green: 50
[6]; [19]
  Plant response rating, Foxtail, Green: 80
[6]; [20]
  Plant response rating, Foxtail, Green: 85
[6]; [24]
  Foxtail, Green plant response rating: 95
[6]; [21]
  Plant response rating, Foxtail, Green: 0
[6]; [25]
  Plant response rating, Foxtail, Green: 80
[6]; [22]
  Foxtail, Green plant response rating: 80
[7]; [18]
  Plant response rating, Johnsongrass: 85
[7]; [19]
  Plant response rating, Johnsongrass: 90
[7]; [20]
  Plant response rating, Johnsongrass: 98
[7]; [24]
  Johnsongrass plant response rating: 100
[7]; [21]
  Plant response rating, Johnsongrass: 0
[7]; [25]
  Plant response rating, Johnsongrass: 45
[7]; [22]
  Johnsongrass plant response rating: 75
[8]; 62 g ai/ha, 13 to 15 days
  Plant response rating, Kochia: 0
[8]; 125 g ai/ha, visual rating after 13 to 15 days
  Plant response rating, Kochia: 15
[8]; 250 g ai/ha, scale 0 to 100
  Kochia plant response rating: 98
[9]; [18]
  Plant response rating, Lambsquarters: 100
[9]; [19]
  Plant response rating, Lambsquarters: 98
[9]; [20]
  Plant response rating, Lambsquarters: 100
[9]; [24]
  Lambsquarters plant response rating: 100
[9]; [21]
  Plant response rating, Lambsquarters: 100
[9]; [25]
  Plant response rating, Lambsquarters: 100
[9]; [22]
  Lambsquarters plant response rating: 100
[10]; [18]
  Plant response rating, Crabgrass, Large: 100
[10]; [23]
  Plant response rating, Crabgrass, Large: 65
[10]; [19]
  Plant response rating, Crabgrass, Large: 75
[10]; [20]
  Plant response rating, Crabgrass, Large: 75
[10]; [24]
  Crabgrass, Large plant response rating: 85
[10]; [21]
  Plant response rating, Crabgrass, Large: 45
[10]; [25]
  Plant response rating, Crabgrass, Large: 95
[10]; [22]
  Crabgrass, Large plant response rating: 100
[11]; [18]
  Plant response rating, Morningglory: 0
[11]; [19]
  Plant response rating, Morningglory: 75
[11]; [20]
  Plant response rating, Morningglory: 80
[11]; [21]
  Plant response rating, Morningglory: 0
[12]; [18]
  Plant response rating, Pigweed: 100
[12]; [19]
  Plant response rating, Pigweed: 98
[12]; [20]
  Plant response rating, Pigweed: 100
[12]; [21]
  Plant response rating, Pigweed: 85
[12]; [22]
  Pigweed plant response rating: 100
[13]; [18]
  Plant response rating, Soybean: 0
[13]; [19]
  Plant response rating, Soybean: 95
[13]; [20]
  Plant response rating, Soybean: 98
[13]; [21]
  Plant response rating, Soybean: 0
[13]; [22]
  Soybean plant response rating: 0
[14]; [18]
  Plant response rating, Velvetleaf: 95
[14]; [19]
  Plant response rating, Velvetleaf: 80
[14]; [20]
  Plant response rating, Velvetleaf: 90
[14]; [21]
  Plant response rating, Velvetleaf: 0
[14]; [22]
  Velvetleaf plant response rating: 85
[15]; [18]
  Plant response rating, Oat, Wild: 5
[15]; [19]
  Plant response rating, Oat, Wild: 55
[15]; [20]
  Plant response rating, Oat, Wild: 60
[15]; [21]
  Plant response rating, Oat, Wild: 0
[15]; [22]
  Oat, Wild plant response rating: 0
[16]; [18]
  Plant response rating, Cupgrass, Woolly: 75
[16]; [23]
  Plant response rating, Cupgrass, Woolly: 70
[16]; [19]
  Plant response rating, Cupgrass, Woolly: 75
[16]; [20]
  Plant response rating, Cupgrass, Woolly: 75
[16]; [24]
  Cupgrass, Woolly plant response rating: 80
[16]; [21]
  Plant response rating, Cupgrass, Woolly: 45
[16]; [25]
  Plant response rating, Cupgrass, Woolly: 45
[16]; [22]
  Cupgrass, Woolly plant response rating: 60
[17]; [18]
  Plant response rating, Nutsedge, Yellow: 70
[17]; [19]
  Plant response rating, Nutsedge, Yellow: 10
[17]; [20]
  Plant response rating, Nutsedge, Yellow: 45
[17]; [21]
  Plant response rating, Nutsedge, Yellow: 0
[17]; [22]
  Nutsedge, Yellow plant response rating: 20
